# Measured values published in patent publication US9969715B2, “Compounds useful for treating cancer” (ABIVAX, priority 2012, dated 2018).
# Columns and labels:
# [1] = system: MDA-MB231-luc-D3H2LN cells; assay: Viability (MTS) assay on the cells in collagen under invasion assay conditions; assay type: cell-based, human; settings: loss of viability at the concentration giving 0.5 × effect of 10 μM Y-27632, invasion assay conditions
# Protocol: (§1) Viability assay, fixation and staining: Following another 24 h incubation, an MTS assay is performed directly on the cells in the collagen. Then, cells are fixed and nuclei are stained.
# (§2) In order to detect possible toxic effects, all compounds are tested in parallel in a viability assay. The viability assay is performed in parallel on serum-starved cells (as in the invasion assay) vs. cells under normal culture conditions (10% FBS).
# Viability Assay: MTS Assay:
# add each 33 μl/well of the MTS reagent, incubate 3-4 h at 37° C./5% CO2
# read absorbance at 490 nm (proportional to the viability)
# calculate the background-corrected signals by subtracting the means of the background signals in absence of cells from the corresponding signals in presence of cells
# normalize the background-corrected signals with respect to the mean signal of the negative controls (no drug) (viabilities are thus expressed in “% of control”)
# (§3) Final analysis: Determine the concentration at which a given compound has 50% of the anti-invasive effect of the positive control (10 μM Y-27632). Determine the toxicity (=loss of viability) of the compound under these conditions.
# [2] = system: MDA-MB231-luc-D3H2LN cells; assay: Toxicity assay under normal cell culture conditions (MTS), MDA cells; assay type: cell-based, human; settings: MDA-MB231-luc-D3H2LN cells, MEM+10% FBS, 72 h incubation, MTS
# Protocol: as §2
# (§4) Toxicity Assays (Under Normal Cell Culture Conditions):
# (§5) Compounds were prepared as for the invasion assay, and then added to either MDA-MB231-luc-D3H2LN cells (2000/well) under normal culture conditions (MEM+10% FBS), or human PBMC (75000/well, in RPMI+10% FBS+IL-2) in standard 96-well tissue culture plates. After 72 h incubation, a standard MTS assay was performed according to the manufacturer's instructions (Promega Ref. G3581). Compounds were tested at various concentrations (concentration-response curves) in order to determine the concentrations at which 50% toxicity is obtained.
# [3] = target: T1, hERG channel (Homo sapiens, UniProt Q12809); assay: hERG channel inhibition (electrophysiology, hERG-transfected HEK293 cells); assay type: cell-based; settings: for % hERG inhibition in transfected HEK (n = 3) at 1 μM av: 1 μM compound; for % hERG inhibition in transfected HEK (n = 3) at 10 μM av: 10 μM compound
# T1 construct: host or cells: HEK293
# Protocol: Performed by Porsolt & Partners (Z. A. de Glatigné, 53940 Le Genest-Saint-Isle, France). Briefly, each 3 hERG-transfected HEK293 cells were superfused with the compounds at 1 and 10 μM, and the hERG channel current was measured by electrophysiology, as described by Crumb et al., J. Pharmacol. Exp. Ther. 2000.
# [4] = system: MDA-MB231-luc-D3H2LN cells; assay: Invasion of MDA-MB231-D3H2LN cells into collagen (example 15 = procedure 2, 48 h drug pre-incubation); assay type: cell-based; settings: concentration giving 50% of the anti-invasive effect of 10 μM Y-27632; 48 h pre-incubation, 24 h with 5% FBS; read-out: MDA: Inhib. of invasion: 0.5 × eff. of 10 μM Y-27632 at (μM) av
# Protocol: Effect of Drug Compounds on Invasion of MDA-MB231-D3H2LN Cells into Collagen
# Preparation of cells at the bottom of a collagen gel: Cells are suspended in a liquid collagen solution (4° C.), distributed into BSA-coated wells, and then collected at the bottom of the wells by centrifugation. The collagen is then solidified by incubation at 37° C. The BSA coating improves the adhesion of the collagen gel.
# Pre-treatment with the compounds to be tested: Concentrated drug solutions are then added on top of the collagen, and cells are pre-incubated for 48 h with the drugs at low serum conditions (0.025% FBS).
# Stimulation of invasion: Medium with 5% FBS is then added in order to stimulate invasion of the cells into the collagen gel.
# as §1
# Analysis: Finally, plates are analyzed using an automated microscope. Fluorescent beads that have been included into the BSA coating serve to detect the bottom of the wells. Pictures of the stained nuclei are taken at the same level (0 μm) as well as 25 μm and 50 μm above.
# Negative control: No drug (just DMSO at equivalent concentration). Positive control: 10 μM Y-27632. To avoid edge effects, cells are added only to the 60 central wells B2-G11; lines A and H receive only collagen without cells (blank for the MTS assay) columns 1 and 12 remain free. Each drug is tested at least in triplicate. The positive and negative controls should be tested in several triplicates at different positions on each plate. Typical plate map (−=negative control, +=positive control, 1-12=12 different test conditions, i. e. different drug compounds or concentrations):
# Preparation of 4× concentrated drug solutions in MEM+0.1% FBS+2% Lutrol E-400+0.8% DMSO: Mix each 620 μl MEM+0.1% FBS+2% Lutrol E-400 with each 4 μl DMSO+each 1 μl of the 50 mM compound stock solutions (yielding […] and 0.8% DMSO). If the desired final compound concentration is <5 μM, then further dilute in MEM+0.1% FBS+0.8% DMSO. Negative control: MEM+0.1% FBS+2% Lutrol E-400+0.8% DMSO without any drug. Preparation of the positive control: Mix 4.5 ml MEM+0.1% FBS+2% Lutrol E-400+[…] with 36 μl 5 mM Y-27632 (freshly thawed aliquot) (yielding 40 μM).
# add each 33 μl/well of the 4× concentrated drug solutions in MEM+0.1% FBS+2% Lutrol E-400+0.8% DMSO to the corresponding wells (yields 1× concentrated drugs in MEM+0.025% FBS+0.5% Lutrol E-400+0.2% DMSO final)
# incubate 48 h at 37° C./5% CO2
# incubate 24 h at 37° C./5% CO2
# for each well, calculate the mean invasion distance of the counted cells: (25 μm×number of cells at 25 μm+50 μm×number cells at 50 μm)/sum of cells at 0, 25 and 50 μm
# invalidate any replicate with a CV≥50% (compound to be re-tested, or assay to be repeated if CV≥50% for the untreated negative control or the compound Y-27632-treated positive control). Y27632 is a selective inhibitor of the Rho-associated protein kinase p160ROCK of the following formula
# validate the assay only if the mean invasion distance of the cells treated with 10 μM Y-27632 (positive control) is decreased by ≥40% as compared to the untreated negative control
# as §3
# Here, invasion (into collagen) is the concentration of the compound necessary to reach 50% of the inhibition effect compared to 10 μM Y-27632.
# Standard operating procedure 2 is exactly the same as the procedure as described in example 15.
# [5] = system: human PBMC; assay: Toxicity assay under normal cell culture conditions (MTS), PBMC; assay type: cell-based; settings: human PBMC, RPMI+10% FBS+IL-2, 72 h incubation, MTS
# Protocol: as §4, §5
# T1 sequence (Q12809 whole entry): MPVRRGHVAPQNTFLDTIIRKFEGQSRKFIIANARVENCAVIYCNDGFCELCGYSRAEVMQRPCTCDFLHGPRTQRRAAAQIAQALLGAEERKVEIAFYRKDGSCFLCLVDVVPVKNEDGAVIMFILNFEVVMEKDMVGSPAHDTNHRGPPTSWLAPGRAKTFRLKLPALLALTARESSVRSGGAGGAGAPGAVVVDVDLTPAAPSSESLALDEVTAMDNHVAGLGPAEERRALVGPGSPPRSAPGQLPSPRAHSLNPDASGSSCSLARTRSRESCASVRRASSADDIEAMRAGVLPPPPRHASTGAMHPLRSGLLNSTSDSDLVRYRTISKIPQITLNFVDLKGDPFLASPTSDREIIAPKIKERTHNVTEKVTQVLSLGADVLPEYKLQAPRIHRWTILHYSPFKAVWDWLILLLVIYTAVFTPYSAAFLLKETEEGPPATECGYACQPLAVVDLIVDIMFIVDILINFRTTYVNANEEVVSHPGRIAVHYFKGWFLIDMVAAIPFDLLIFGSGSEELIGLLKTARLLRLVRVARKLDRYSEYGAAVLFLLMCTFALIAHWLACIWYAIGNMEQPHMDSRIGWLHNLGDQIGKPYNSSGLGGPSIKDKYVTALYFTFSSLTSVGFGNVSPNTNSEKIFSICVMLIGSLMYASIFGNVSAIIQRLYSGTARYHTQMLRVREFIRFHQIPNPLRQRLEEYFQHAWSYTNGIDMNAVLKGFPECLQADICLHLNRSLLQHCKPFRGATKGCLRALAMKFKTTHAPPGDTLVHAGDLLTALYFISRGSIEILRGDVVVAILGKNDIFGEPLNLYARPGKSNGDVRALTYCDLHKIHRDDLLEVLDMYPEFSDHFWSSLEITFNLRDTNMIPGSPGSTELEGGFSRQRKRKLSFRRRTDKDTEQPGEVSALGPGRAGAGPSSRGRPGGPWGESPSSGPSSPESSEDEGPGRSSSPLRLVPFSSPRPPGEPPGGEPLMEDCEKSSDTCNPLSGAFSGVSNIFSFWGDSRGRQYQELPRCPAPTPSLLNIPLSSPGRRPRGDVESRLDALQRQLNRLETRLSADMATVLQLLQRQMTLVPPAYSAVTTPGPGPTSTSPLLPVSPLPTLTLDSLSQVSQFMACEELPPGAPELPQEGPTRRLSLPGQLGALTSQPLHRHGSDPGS
SMILES,IC50 [4],(+ MDA tox. under these cond.) % tox [1],MDA tox: 50% tox. at (μM) av [2],% hERG inhibition in transfected HEK (n = 3) at 1 μM av [3],% hERG inhibition in transfected HEK (n = 3) at 10 μM av [3],PBMC tox.: 50% tox. at (μM) av [5]
"CCN(CC)CCCNC(=O)c1ccnc(Nc2cccc(C(=O)Nc3ccncn3)c2)c1 [Compound 41, N-(3-(diethylamino)propyl)-2-((3-(pyrimidin-4-ylcarbamoyl)phenyl)amino)isonicotinamide]",1.5 µM,<10%,≥80 µM,8%,53%,>100 µM
"CCN(CC)CCCNC(=O)c1cccc(Nc2cccc(C(=O)Nc3ccncc3)c2)n1 [Compound 35, N-(3-(diethylamino)propyl)-6-((3-(pyridin-4-ylcarbamoyl)phenyl)amino)picolinamide]",0.55 µM,<10%,59 µM,4%,30%,128 µM
"CN1CCN(CCCNC(=O)c2ccnc(Nc3cccc(C(=O)N(C)c4ccncc4)c3)c2)CC1 [Compound 39, 2-((3-(methyl(pyridin-4-yl)carbamoyl)phenyl)amino)-N-(3-(4-methylpiperazin-1-yl)propyl)isonicotinamide]",1.45 µM,<10%,19 µM,,,74 µM
"O=C(NCCCN1CCCCC1)c1cccc(Nc2cccc(C(=O)Nc3ccncn3)c2)c1 [Compound 29, N-(3-(piperidin-1-yl)propyl)-3-((3-(pyrimidin-4-ylcarbamoyl)phenyl)amino)benzamide]",0.15 µM,<10%,33 µM,,,44 µM
"CCN(CC)CCCNC(=O)c1cccc(Nc2cc(C(=O)Nc3ccncc3)ccn2)n1 [Compound 43, N-(3-(diethylamino)propyl)-6-((4-(pyridin-4-ylcarbamoyl)pyridin-2-yl)amino)picolinamide]",3.25 µM,<10%,>100 µM,,,>100 µM
"O=C(NCCCN1CCOCC1)c1cccc(Nc2cc(C(=O)Nc3ccncc3)ccn2)c1 [Compound 48, 2-((3-((3-morpholinopropyl)carbamoyl)phenyl)amino)-N-(pyridin-4-yl) isonicotinamide]",0.75 µM,<10%,80 µM,,,26 µM
"CCN(CC)CCCNC(=O)c1cccc(Nc2cccc(C(=O)Nc3ccncn3)c2)c1 [Compound 25, N-(3-(diethylamino)propyl)-3-((3-(pyrimidin-4-ylcarbamoyl)phenyl)amino)benzamide]",< 0.5 µM,<10%,46 µM,,,88 µM

# Further lines, with some results ahead:
IC50 [4],SMILES,(+ MDA tox. under these cond.) % tox [1],MDA tox: 50% tox. at (μM) av [2],% hERG inhibition in transfected HEK (n = 3) at 1 μM av [3],% hERG inhibition in transfected HEK (n = 3) at 10 μM av [3],PBMC tox.: 50% tox. at (μM) av [5]
0.25 µM,"O=C(NCCCN1CCOCC1)c1cccc(Nc2cccc(/C=C/c3ccncc3)c2)c1 [Compound 583, reference compound]",<10%,21 µM,36%,74%,18 µM
> 2 µM,"CCN(CC)CCCNC(=O)c1cccc(Nc2cccc(C(=O)Nc3ccccn3)c2)c1 [Compound 11, N-(3-(diethylamino)propyl)-3-((3-(pyridin-2-ylcarbamoyl)phenyl)amino)benzamide]",,44 µM,64%,87%,47 µM
0.3 µM,"O=C(NCCCN1CCCC1)c1cccc(Nc2cccc(/C=C/c3ccncc3)c2)c1 [Compound 585, reference compound]",<10%,10 µM,42%,77%,9 µM
0.75 µM,"CCN(CC)CCCNC(=O)c1cccc(Nc2cccc(C(=O)Nc3ccncn3)c2)n1 [Compound 40, N-(3-(diethylamino)propyl)-6-((3-(pyrimidin-4-ylcarbamoyl)phenyl)amino)picolinamide]",<10%,73 µM,26%,59%,>100 µM
3.75 µM,"CCN(CC)CCCNC(=O)c1ccnc(Nc2cccc(C(=O)N(C)c3ccncc3)c2)c1 [Compound 38, N-(3-(diethylamino)propyl)-2-((3-(methyl(pyridin-4-yl)carbamoyl)phenyl)amino)isonicotinamide]",<10%,>>100 μM,,,>>100 μM
0.28 µM,"O=C(NCCCN1CCOCC1)c1cccc(Nc2cccc(C(=O)Nc3ccncn3)c2)c1 [Compound 30, N-(3-morpholinopropyl)-3-((3-(pyrimidin-4-ylcarbamoyl)phenyl)amino)benzamide]",<10%,75 µM,,,>100 µM
